For one assay, the system named is C2C12 cells. In words: Immunocytochemical analysis of TGF-β1-stimulated C2C12 myoblasts. Format: cell-based, mouse. Conditions: low or high concentration halofuginone after TGF-β1 stimulation (FIG. 4c). On the procedure:
Specifically, C2C12 cells were plated in 6-well plates with coverslips and stimulated with rhTGF-β1 in serum-free medium. After 24 hours of stimulation, the cells were treated with low or high concentrations of halofuginone in serum-free medium for 24 hours. The cells were washed three times with PBS and fixed in 4% paraformaldehyde at room temperature for 15 minutes. The fixed cells were then washed three times with PBS and treated with 0.5% Triton X-100 for 5 minutes. Subsequently, they were blocked with 5% bovine serum albumin in 0.3% PBS-T for 1 hour at room temperature. The cells were incubated with anti-α-SMA antibody (1:200; abcam cat #ab7817) and anti-MyoD antibody (1:200; Santa Cruz, cat #sc377460) in blocking buffer at 4° C. for 24 hours. After washing three times with PBS, the cells were incubated with Alexa Fluor secondary antibodies at room temperature for 1 hour. Nuclear DNA was stained with DAPI (4,6-diamino-2-phenylindole, 1:1,000; Sigma), washed twice with PBS, and coverslips were mounted on glass slides using a Dako fluorescence mounting medium (Dako). […] In addition, it was quantified in a blind manner using Leica Application Suite X software (Leica Microsystems). […]

The subject of assay [1] is G93A mutant SOD1 transgenic mice. In words: Range of motion (ROM) of the knee joint in ALS animal model. Format: in vivo, mouse. Conditions: 120 days old; compared to DMSO Non-TG group (DMSO TG significantly reduced). On the procedure:
As a control group, non-transgenic mice were injected intraperitoneally (i.p.) with vehicle (DMSO) in the same manner for the same period of time. Specifically, anatomical indicators were used to determine the knee extension angle. Manual knee joint ROM was measured at the end of disease age (120 days) using Random Two-line, a 2D angle analysis system. The mice of Example 6 were anesthetized with 1% isoflurane inhalation, followed by placing them on an acrylic plate and shaving the skin on their hind legs. The femur was fixed to the plate and a constant force extension moment was applied to the knee joint per mouse. Subsequently, markers were attached to greater trochanter, epicondyle of the knee, and lateral malleolus to obtain markers on the imaging. The angle between the axis of the femur (the greater trochanter to the lateral joint space of the knee) and the fibula (the lateral joint space of the knee to the lateral malleolus) was measured as the knee extension ROM. Sixteen mice in each group were analyzed, and the knees of non-transgenic mice injected with DMSO in the group on day 120 were used as controls. Specifically, halofuginone was administered to G93A mutant SOD1 mice in the same manner as described in Example 6, and ROM measurement of the knee joint was performed in the same manner as described in Example 10 (FIG. 8a). […]

Assay [2] has the same test system. In words: Motor neuron cell count (ChAT) in lumbar spinal cord of ALS animal model. Format: in vivo, mouse. The method, then:
As a control group, non-transgenic mice were injected intraperitoneally (i.p.) with vehicle (DMSO) in the same manner for the same period of time.
Specifically, mice were sacrificed at various time points (90 days and 120 days) according to the clinical state of the mice of Example 6. Each mouse was transdermally perfused with cold 4% paraformaldehyde (PFA) following cold PBS, and lumbar spinal cord was separated. Samples were post-fixed in 4% paraformaldehyde, treated in a cold 30% sucrose solution, then freeze-protected, and then cross-sectional sections 14 μm thick were successively obtained. […] Motor neurons were quantified from ChAT-stained sections using a computer-assisted microscope (Olympus BX53) at 4× magnification, along with cellSens software. […] The fields analyzed were all ChAT+ profiles located in the ventral half of the immunostaining section clearly marked on the gray matter of each hemisphere.
In addition, to investigate the motor neuron source of the spinal cord, motor neurons of the lumbar spinal cord were observed and counted in the same manner as described in Example 9 (FIG. 9d), and real-time qRT-PCR and Western blot analysis were performed in the same manner as described in Example 11 and Example 12 to quantitatively analyze the expression of ChAT mRNA (FIG. 9e) and ChAT protein (FIG. 9f). […]

Regarding `O=C(C[C@H]1NCCC[C@@H]1O)Cn1cnc2cc(Br)c(Cl)cc2c1=O` (racemic) [halofuginone], in the assay with C2C12 cells, the “intensity of MyoD (immunofluorescence)” value is given as “recovery” and the “intensity of α-SMA (immunofluorescence)” value was “reduction”. For the same molecule, in assay [1], the “range of motion (ROM) of the knee joint” value is “not changed”. Further, the “number of ChAT-positive motor neurons in lumbar spinal cord, compared with changes at 120 days” value in assay [2] (90-day-old mice (FIG. 10b)) was “similar”. For the same molecule, in assay [2] (120-day-old mice, compared to DMSO Non-TG group (FIG. 9d)), the “number of ChAT-positive motor neurons in lumbar spinal cord” value was “preserved similarly”.

The record behind these values is patent publication US20240390377A1, “COMPOSITION FOR THE PREVENTION OR TREATMENT OF NEURODEGENERATIVE OR MOTOR NEURON DISEASES COMPRISING HALOFUGINONE AS AN ACTIVE INGREDIENT” (CURAMYS CO., LTD., priority 2022, published 2024).
